Broadly, the IC50 is the concentration that inhibits the measured activity by half. Read a high IC50 as a need for much substance.

From BindingDB's records for patent US12180207 (Array Biopharma, 2024) come the findings set out here.

The target of experiment [1] is T1, Fibroblast growth factor receptor 3 (Homo sapiens, UniProt P22607). In words: FGFR3 Enzyme Activity Assay. The procedure: (§1) FGFR3 kinase activity was measured by the Invitrogen LanthaScreen™ Assay technology which directly measures the amount of substrate phosphorylation by TR-FRET using a fluorescently-labeled peptide and Europium-labeled antibody. […] After a 10 minute incubation at 22° C., an equal volume of 2 nM LanthaScreen Eu-PY20 Antibody (Life Technologies Cat. No. PV5691) and 10 mM EDTA were added to quench the kinase reaction and start the detection reaction. After an additional 60 minute incubation at 22° C., the reaction was measured using a PerkinElmer EnVision multimode plate reader via TR-FRET dual wavelength detection, and the percent of control (POC) calculated using a ratiometric emission factor. 100 POC was determined using no test compounds and 0 POC was determined using no enzyme. The POC values were fit to a 4-parameter logistic curve as a function of the concentration of the compound, and the IC50 value is the point where the curve crosses 50 POC.

For experiment [2], the target named is T2, Fibroblast growth factor receptor 2 (Homo sapiens, UniProt P21802). Briefly: FGFR2 Enzyme Activity Assay. The procedure:
as §1, with “FGFR2 kinase” for “FGFR3 kinase”, “a 20” for “a 10”

For experiment [3], the target named is T3, Fibroblast growth factor receptor 1 (Homo sapiens, UniProt P11362). In words: FGFR1 Enzyme Activity Assay. On the procedure:
as §1, with “FGFR1 kinase” for “FGFR3 kinase”, “by Time-resolved fluorescence energy transfer (TR-FRET)” for “by TR-FRET”, “a 20 minutes” for “a 10 minute”, “EDTA was” for “EDTA were”

Experiment [4] has as its target T3, Fibroblast growth factor receptor 1. In words: Enzyme Assay. The procedure: (§2) he potency of compounds inhibiting human isoforms of FGFR kinase was determined using Life Technologies' Homogeneous Time Resolved Fluorescence (HTRF)-based binding assay technology. […] After a 60 minute incubation at 22° C., the extent of tracer displacement was determined using a PerkinElmer EnVision multimode plate reader via HTRF dual wavelength detection, and the percent of control (POC) was calculated using a ratiometric emission factor. One hundred POC was determined using no test compound, and 0 POC was determined in the presence of 1 μM of an appropriate control inhibitor.

In experiment [5] the target is T1, Fibroblast growth factor receptor 3. In words: Enzyme Assay. The procedure:
as §2

For experiment [6], the target named is T2, Fibroblast growth factor receptor 2. Briefly: Enzyme Assay. On the procedure: as §2

T1 sequence (P22607 whole entry): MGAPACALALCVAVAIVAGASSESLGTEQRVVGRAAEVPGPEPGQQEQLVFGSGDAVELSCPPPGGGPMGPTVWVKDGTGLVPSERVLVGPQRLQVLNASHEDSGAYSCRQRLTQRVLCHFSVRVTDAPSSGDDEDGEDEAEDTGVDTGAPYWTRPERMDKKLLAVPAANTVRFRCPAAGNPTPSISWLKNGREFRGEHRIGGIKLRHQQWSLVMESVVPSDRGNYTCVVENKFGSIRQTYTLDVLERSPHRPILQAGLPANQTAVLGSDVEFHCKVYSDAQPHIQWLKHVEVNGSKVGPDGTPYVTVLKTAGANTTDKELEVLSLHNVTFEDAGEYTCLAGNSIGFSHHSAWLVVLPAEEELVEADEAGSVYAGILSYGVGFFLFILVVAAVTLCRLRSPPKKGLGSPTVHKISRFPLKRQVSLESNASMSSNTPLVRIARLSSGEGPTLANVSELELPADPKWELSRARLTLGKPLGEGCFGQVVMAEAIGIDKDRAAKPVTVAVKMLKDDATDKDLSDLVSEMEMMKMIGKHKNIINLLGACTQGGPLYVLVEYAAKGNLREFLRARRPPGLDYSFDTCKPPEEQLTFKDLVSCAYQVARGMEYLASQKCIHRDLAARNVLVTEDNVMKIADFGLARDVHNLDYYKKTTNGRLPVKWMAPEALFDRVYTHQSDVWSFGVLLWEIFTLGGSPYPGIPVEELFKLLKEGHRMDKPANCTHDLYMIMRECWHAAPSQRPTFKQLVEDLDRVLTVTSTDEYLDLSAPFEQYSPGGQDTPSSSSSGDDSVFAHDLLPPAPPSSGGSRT
T2 sequence (P21802 whole entry): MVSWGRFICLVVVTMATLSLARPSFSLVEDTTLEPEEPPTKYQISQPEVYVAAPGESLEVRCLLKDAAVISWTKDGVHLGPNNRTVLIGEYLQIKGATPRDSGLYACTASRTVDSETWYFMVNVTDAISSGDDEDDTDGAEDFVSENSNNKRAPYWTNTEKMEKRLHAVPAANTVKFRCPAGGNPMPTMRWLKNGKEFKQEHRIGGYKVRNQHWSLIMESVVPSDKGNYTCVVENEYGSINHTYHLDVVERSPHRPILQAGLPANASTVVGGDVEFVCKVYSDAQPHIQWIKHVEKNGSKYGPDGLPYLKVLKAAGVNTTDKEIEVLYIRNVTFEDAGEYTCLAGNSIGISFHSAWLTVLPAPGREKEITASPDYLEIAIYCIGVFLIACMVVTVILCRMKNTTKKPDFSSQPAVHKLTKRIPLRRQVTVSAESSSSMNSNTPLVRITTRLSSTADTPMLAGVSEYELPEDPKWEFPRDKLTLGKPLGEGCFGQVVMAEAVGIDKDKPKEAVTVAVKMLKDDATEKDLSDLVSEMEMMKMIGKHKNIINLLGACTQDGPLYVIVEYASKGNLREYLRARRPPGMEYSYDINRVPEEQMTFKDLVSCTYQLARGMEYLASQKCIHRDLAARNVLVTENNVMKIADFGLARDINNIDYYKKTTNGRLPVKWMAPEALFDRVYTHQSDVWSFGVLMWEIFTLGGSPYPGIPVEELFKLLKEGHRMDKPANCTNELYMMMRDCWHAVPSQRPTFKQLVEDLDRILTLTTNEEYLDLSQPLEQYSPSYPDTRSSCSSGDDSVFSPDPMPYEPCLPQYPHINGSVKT
T3 sequence (P11362 whole entry): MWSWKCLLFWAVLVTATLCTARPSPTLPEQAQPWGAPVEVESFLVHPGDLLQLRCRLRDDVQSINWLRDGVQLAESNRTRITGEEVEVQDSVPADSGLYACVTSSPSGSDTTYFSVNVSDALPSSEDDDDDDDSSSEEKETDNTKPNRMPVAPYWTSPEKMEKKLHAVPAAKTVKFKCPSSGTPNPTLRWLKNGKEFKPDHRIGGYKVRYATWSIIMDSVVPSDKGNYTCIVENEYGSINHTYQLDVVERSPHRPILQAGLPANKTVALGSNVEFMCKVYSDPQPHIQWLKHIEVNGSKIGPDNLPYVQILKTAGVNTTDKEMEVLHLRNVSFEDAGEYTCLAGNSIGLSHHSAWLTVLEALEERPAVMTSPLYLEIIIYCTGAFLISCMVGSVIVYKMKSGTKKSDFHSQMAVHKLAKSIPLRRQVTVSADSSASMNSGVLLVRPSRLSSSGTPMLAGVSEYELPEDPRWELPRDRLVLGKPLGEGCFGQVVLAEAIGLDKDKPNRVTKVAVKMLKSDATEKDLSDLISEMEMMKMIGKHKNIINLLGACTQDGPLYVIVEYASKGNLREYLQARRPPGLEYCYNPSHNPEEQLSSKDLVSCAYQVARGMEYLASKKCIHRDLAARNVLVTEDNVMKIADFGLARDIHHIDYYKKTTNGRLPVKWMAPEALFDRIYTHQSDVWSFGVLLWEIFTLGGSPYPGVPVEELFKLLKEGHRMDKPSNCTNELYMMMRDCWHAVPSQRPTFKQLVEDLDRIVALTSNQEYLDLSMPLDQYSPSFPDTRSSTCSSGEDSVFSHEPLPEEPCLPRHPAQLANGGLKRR

Turning to `C=CC(=O)N[C@H]1CCC[C@@H](C(=O)N2CCC(n3cc(-c4cc(OC)c5c(C#N)cnn5c4)cn3)CC2)C1` [US12180207, Example 19], the IC50 came to 7 nM in experiment [1]; 8 nM in experiment [2]; 20 nM in experiment [3]; 56 nM in experiment [4]; 11 nM in experiment [5].
The like results for `C=CC(=O)N[C@@H]1CC[C@H](C(=O)N2CCC(n3cc(-c4cc(OC)c5c(C#N)cnn5c4)cn3)CC2)C1` [US12180207, Example 32] were, in that order, 3 nM, 4 nM, 13 nM, 113 nM and 31 nM.
For the molecule `C=CC(=O)N[C@H]1CC[C@@H](C(=O)N2CCC(n3cc(-c4cc(OC)c5c(C#N)cnn5c4)cn3)CC2)C1` [US12180207, Example 33], the IC50 in experiment [1] came out at 1 nM; in experiment [2], 4 nM; in experiment [4] it was 20 nM; in experiment [5], 3 nM.
Take `C=CC(=O)N[C@@H]1CC[C@@H](C(=O)N2CCC(n3cc(-c4cc(OC)c5c(C#N)cnn5c4)cn3)CC2)C1` [US12180207, Example 34]: the IC50 in experiment [1] came to 2 nM; in experiment [2] it was 5 nM; in experiment [3], 19 nM; in experiment [4], 231 nM; in experiment [5] it was 36 nM.
As for `C=CC(=O)N[C@H]1CC[C@H](C(=O)N2CCC(n3cc(-c4cc(OC)c5c(C#N)cnn5c4)cn3)CC2)C1` [US12180207, Example 35], the IC50 in experiment [1] stood at 3 nM; in experiment [2], 5 nM; in experiment [3], 19 nM; in experiment [4] it was 119 nM; in experiment [5], 23 nM.
Turning to `C=CC(=O)Nc1ccc(S(=O)(=O)N2CCC(n3cc(-c4cc(OC)c5c(C#N)cnn5c4)cn3)CC2)cc1` [US12180207, Example 49], the IC50 worked out at 5 nM in experiment [1], 43 nM in experiment [3], 113 nM in experiment [4] and 13 nM in experiment [5].
Turning to `C=CC(=O)N[C@H]1CC[C@H](C(=O)N2CC(n3cc(-c4cc(OC)c5c(C#N)cnn5c4)cn3)C2)C1` [US12180207, Example 77], the IC50 amounted to 11 nM in experiment [1]; 12 nM in experiment [2]; 35 nM in experiment [3]; 393 nM in experiment [4]; 118 nM in experiment [5].
With `C=C(F)C(=O)N1CC(C(=O)N2CCC(n3cc(-c4cc(OC)c5c(C#N)cnn5c4)cn3)CC2)C1` [US12180207, Example 140], the IC50 came to 4 nM in experiment [1]; 2 nM in experiment [2]; 21 nM in experiment [3]; 19 nM in experiment [6]; 37 nM in experiment [4]; 7 nM in experiment [5].
Turning to `COc1cc(-c2cnn(C3CCN(C(=O)C4CN(C(=O)/C=C/CF)C4)CC3)c2)cn2ncc(C#N)c12` [US12180207, Example 142], the IC50 in experiment [2] was 3 nM; in experiment [3], 20 nM; in experiment [6], 16 nM; in experiment [4] it was 36 nM; in experiment [5], 5 nM.
`COc1cc(-c2cnn(C3CCN(C(=O)/C=C/CN(C)C)CC3)c2)cn2ncc(C#N)c12` [US12180207, Example 144]: the IC50 in experiment [1] came to 4 nM; in experiment [2], 5 nM; in experiment [3] it was 11 nM; in experiment [4] it was 276 nM; in experiment [5] it was 24 nM.
Consider `COc1cc(-c2cnn(C3CN(CC4CN(C(=O)/C=C/CN(C)C)C4)C3)c2)cn2ncc(C#N)c12` [US12180207, Example 148], for which the IC50 in experiment [1] turned out to be 4 nM; in experiment [2], 6 nM; in experiment [3], 47 nM; in experiment [4], 217 nM; in experiment [5], 14 nM.
With `COc1cc(-c2cnn(C3CN(C(=O)C4CN(C(=O)/C=C/CN(C)C)C4)C3)c2)cn2ncc(C#N)c12` [US12180207, Example 150], the IC50 in experiment [1] came to 7 nM; in experiment [2], 6 nM; in experiment [3], 8 nM; in experiment [4], 229 nM; in experiment [5], 22 nM.
Take `C=CS(=O)(=O)N[C@H]1CC[C@H](C(=O)N2CCC(n3cc(-c4cc(OC)c5c(C#N)cnn5c4)cn3)CC2)CC1` [US12180207, Example 187]: the IC50 in experiment [2] worked out at 5 nM; in experiment [3], 17 nM; in experiment [4], 31 nM; in experiment [5], 4 nM.
As for `C=CS(=O)(=O)N[C@H]1C[C@@H](C(=O)N2CCC(n3cc(-c4cc(OC)c5c(C#N)cnn5c4)cn3)CC2)C1` [US12180207, Example 193], the IC50 in experiment [3] stood at 7 nM; in experiment [4] it was 36 nM.
On the same counts, the results for `C=CS(=O)(=O)N[C@H]1C[C@H](C(=O)N2CCC(n3cc(-c4cc(OC)c5c(C#N)cnn5c4)cn3)CC2)C1` [US12180207, Example 194] are 13 nM and 93 nM.
Consider `C=CS(=O)(=O)Nc1ccc(C(=O)N2CCC(n3cc(-c4cc(OC)c5c(C#N)cnn5c4)cn3)CC2)cc1` [US12180207, Example 196], for which the IC50 in experiment [1] is 2 nM; in experiment [2], 8 nM; in experiment [3], 10 nM; in experiment [4] it was 31 nM; in experiment [5] it was 3 nM.
